B1: interleukin-10 (protein, UniProt P18893 19-178, looked up)
Interleukin-10: SRGQYSREDNNCTHFPVGQSHMLLELRTAFSQVKTFFQTKDQLDNILLTDSLMQDFKGYLGCQALSEMIQFYLVEVMPQAEKHGPEIKEHLNSLGEKLKTLRMRLRRCHRFLPCENKSKAVEQVKSDFNKLQDQGVYKAMNEFDIFINCIEAYMMIKMKS

Columns and labels:
[1] = test system: rats with surgical manipulation of the intestine; experiment: Rat in vivo gastrointestinal transit of fluorescein-labeled dextran (geometric center); details: surgically manipulated rats, 24 h postoperatively, i.v. pretreatment 1 h before surgery; glycine 170 mg/kg, valine 263.5 mg/kg; SM vehicle GC=5.2±0.7
Experimental: (§1) Age matched animals treated with vehicle (normal saline) or valine (263.5 mg/kg, osmotic control) at appropriate time points and at equal volumes served as controls.
(§2) The rodent intestine was subjected to a standardized degree of surgical manipulation as described previously (14). Rats were anesthetized by isoflurane inhalation and the abdomen was opened by a midline laparotomy. The cecum was eventrated and laid out onto a moist gauze. Then, the intestine was inspected along its length and gently compressed using moist cotton applicators. The midline incision was closed by two layers of continuous sutures. All operative procedures were performed under sterile conditions with the intestine being handled only by instruments and never touched directly. Animals were killed at specific time points postoperatively by isoflurane anesthesia inhalation overdose and heart incision.
(§3) Methods: ACI-rats (180-220 g) underwent standardized surgical manipulation of the intestine. […] Age matched animals treated with vehicle or valine (osmotic control) at appropriate time points and at equal volumes served as controls. […] Postoperative mediator mRNA expression in the intestinal muscularis was determined by real-time RT PCR. Leukocyte extravasation was investigated in muscularis whole-mounts. Nitrite production was measured in muscularis cultures. In vivo transit of FITC-dextran was measured using geometric center analysis (GC). In vitro circular muscle contractility was assessed in a standard organ bath. Statistical analysis: unpaired Student t test, p<0.05, mean±SEM.

[2] = test system: jejunal circular smooth muscle; experiment: In vitro bethanechol stimulated contractile activity of jejunal circular muscle strips; assay type: in vivo, rat; details: manipulated rats, 170 mg/kg glycine or valine pretreatment, 100 mM bethanechol; control 3.2±0.2, SM vehicle 1.9±0.1
Experimental: as §1, §2
Mechanical in vitro activity of the rat mid-jejunum was evaluated at 24 hours postoperatively using smooth muscle strips of the circular muscularis as described previously (rats: N=5-11) (14). After dissection and a 30 minute equilibration period, the individual muscles were incrementally stretched to L0. Then after recording spontaneous contractility for 30 minutes, dose response curves were generated using increasing concentrations of the muscarinic agonist bethanechol ([…]) for 10 minutes and intervening wash periods (KRB) of 10 minutes. The contractile response was recorded and analyzed as g/mm2/sec over a 10 minute period.
as §3

IL-6 mRNA = experiment: Real-time RT-PCR of muscularis IL-6 mRNA 3 hours postoperatively; assay type: in vivo, rat; details: surgically manipulated rats, 3 hours postoperatively
Experimental: as §1, §2
mRNA Expression Analysis: Postoperative mediator mRNA expressions in the small intestinal muscularis were analyzed using SYBR Green two-step real-time RT-PCR as previously described, (N=4-6). […] Total mRNA extraction was performed using the guanidium-thiocyanate phenol-chloroform extraction method. Equal aliquots (200 ng) of total RNA from each sample, quantified by spectrophotometer, were processed for complimentary DNA (cDNA) synthesis. Primer sequences were used as described previously (tumor necrosis factor-a, TNF-a) (35), or designed according to published sequences 36-41, (GenBank accession numbers: NM_017008 [glyceraldehyde phosphate dehydrogenase (GAPDH)], AF233596 [cyclo-oxygenase-2 (COX-2)], NM_012967 [intercellular adhesion molecule-1 (ICAM-1)], M26744 [interleukin-6 (IL-6)] and NM_012611 [inducible nitric oxide synthase (iNOS)]), using Primer Express software (PE Applied Biosystems, Foster City, Calif.) and purchased from Life Technologies (Rockville, Md.). GAPDH was used as an endogenous control. The efficiency and equality of the real-time PCR primer pairs were determined by amplifying serial dilutions of muscularis cDNA. For each target gene different MgCl2 (3 to 5 mM) concentrations were tested to optimize the PCR amplification. […] Relative quantification was performed using the comparative CT method as described by Schmittgen et al. (42).
Methods: ACI-rats (180-220 g) underwent standardized surgical manipulation of the intestine. […] Postoperative mediator mRNA expression in the intestinal muscularis was determined by real-time RT PCR. […] Nitrite production was measured in muscularis cultures. In vivo transit of FITC-dextran was measured using geometric center analysis (GC). In vitro circular muscle contractility was assessed in a standard organ bath. […]

[3] = test system: MPO positive leukocytes in the intestinal muscularis; experiment: Myeloperoxidase (MPO) histochemistry: leukocyte infiltration in muscularis whole-mounts; assay type: in vivo, rat; details: manipulated rats, 24 h postoperatively; glycine 170 mg/kg or valine (263.5 mg/kg); SM vehicle 95±6.4
Experimental: as §1, §2
Histochemistry and Immunohistochemistry: Leukocyte infiltration was quantified on rat whole-mounts of the intestinal muscularis as described previously (N=6-8) (43). Myeloperoxidase (MPO) positive cells were detected using a mixture of 30 mg Hanker-Yates reagent, 30 ml KRB and […] 3% hydrogen peroxide for 10 minutes. Leukocytes were counted in 5 randomly chosen areas in each specimen (3 specimen per animal) at a magnification of 200×.
as §3

nitrite (nitric oxide) = experiment: Nitrite release (Griess reaction) from organ cultured muscularis; assay type: in vivo, rat; details: manipulated rats, glycine 170 mg/kg or valine
Experimental: as §1, §2
Tissue culture and determination of nitrite and prostanoid release in supernatant: The rat small intestine and colon were processed for tissue culture at 24 hours as described previously, (N=5-8) (25). Briefly, the muscularis was isolated by stripping the muscularis from the mucosa and then cut into small pieces and washed twice in Hank's balanced salt solution (HBSS) with 100 U/ml penicillin G and 100 μg/ml streptomycin. Aliquots of muscularis ([…]) were incubated (37° C., 5% CO2) in 6-well tissue culture plates containing 3 ml of supplemented Dulbecco's modified Eagle medium (DMEM)-F12 with 100 U/ml penicillin G and 100 μg/ml streptomycin. After an incubation period of 24 hours, 500 μl aliquots of supernatant were collected, frozen in liquid nitrogen and stored at −80° C. The muscle tissue was blotted dry, and the weight was estimated. To estimate the generation of NO from the intestinal muscularis, nitrite production was measured by the Griess reaction (44). Supernatant from the tissue culture was mixed with equal amount of Griess reagent (0.1% N-(1-naphtyl)ethyl-enediamine dihydrochloride and 1% sulfanilamide in 6% phosphoric acid; 1:1) and incubated at room temperature for 10 minutes. The absorbance at 550 nm was measured with a microplate reader and compared with standard prepared from serial dilutions of sodium nitrite. Each standard and supernatant sample was analyzed in duplicate, and the mean value of nitrite production was normalized to the tissue weight.
as §3

prostanoids [4] = experiment: Prostanoid release (ELISA) from organ cultured muscularis; assay type: in vivo, rat; details: manipulated rats, glycine 170 mg/kg or valine
Experimental: Age matched animals treated with vehicle (normal saline) or valine (263.5 mg/kg, osmotic control) at appropriate time points and at equal volumes served as controls. The rodent intestine was subjected to a standardized degree of surgical manipulation as described previously (14). Rats were anesthetized by isoflurane inhalation and the abdomen was opened by a midline laparotomy. The cecum was eventrated and laid out onto a moist gauze. Then, the intestine was inspected along its length and gently compressed using moist cotton applicators. The midline incision was closed by two layers of continuous sutures. All operative procedures were performed under sterile conditions with the intestine being handled only by instruments and never touched directly. Animals were killed at specific time points postoperatively by isoflurane anesthesia inhalation overdose and heart incision. The synthesis of prostanoids released into the tissue culture supernatant over a period of 24 hours was assayed by ELISA. After incubation the culture median and tissue was inspected, 500 μL aliquots of supernatant were frozen in liquid nitrogen and stored at −80° C. The muscle tissue was blotted dry and weighed. Culture supernatants were assayed for the measurement of prostaglandin secretion by enzyme immunoassay (Cayman Chemicals, Ann Arbor, Mich.). The ELISA was carried out in a 1:10 and 1:30 dilution. The assay was corrected for wet tissue weights and the prostaglandin ELISA kit sensitivity was 20 pg/ml.

[5] = test system: mice subjected to surgical intestinal manipulation (SM); experiment: Gastrointestinal transit (geometric center) after surgical intestinal manipulation, IL-10 treatment; assay type: in vivo; details: SM + IL-10 12.5 μg/kg s.c. before and after; control=10.6±0.3, SM=4.6±0.6
Experimental: (§4) Methods: Mice were subjected to surgical intestinal manipulation (SM) to induce ileus. Before and after animals were treated with IL-10 (12.5 μg/kg, s.c.). Gastrointestinal transit and organ bath measured motility. Histochemistry on jejunal muscularis whole-mounts quantified neutrophil recruitment. Muscularis mediator expressions were measured by RT-PCR, Griess reaction, ELISA and Luminex (N=4 each).

jejunal circular muscle = experiment: Organ bath: jejunal circular muscle contractions to bethanechol, IL-10 treatment; assay type: in vivo, mice; details: SM + IL-10 12.5 μg/kg s.c.; 100 μM bethanechol; SM alone 59.2±4.8%
Experimental: as §4

[6] = test system: muscularis neutrophil recruitment; experiment: Histochemistry on jejunal muscularis whole-mounts: neutrophil recruitment, IL-10 treatment; assay type: in vivo, mice; details: IL-10 treatment compared to SM with vehicle
Experimental: as §4

[7] = test system: IL-6, IL-1β and MCP 1 mRNAs; experiment: RT-PCR of muscularis mediator mRNAs, IL-10 treatment; assay type: in vivo, mice; details: treated animals vs SM
Experimental: as §4

[8] = test system: GM-CSF, VEGF, IL-1α, IL-6, MCP-1 and MIP-1α; experiment: Luminex mediator release from muscularis, IL-10 treatment; assay type: in vivo, mice; details: SM + IL-10 vs SM
Experimental: as §4

NO = experiment: Griess reaction NO release from muscularis, IL-10 treatment; assay type: in vivo, mice; details: SM + IL-10; control=47.1, SM=607.7
Experimental: as §4

prostanoids [9] = experiment: ELISA prostanoid release from muscularis, IL-10 treatment; assay type: in vivo, mice; details: SM + IL-10; control=4033.4, SM=13111
Experimental: as §4

| Molecule | geometric center (GC) of gastrointestinal transit [1] | mean contractile force, bethanechol stimulated [2] | postoperative induction of IL-6 mRNA (IL-6 mRNA) | infiltrating MPO positive leukocytes [3] | nitrite release, fold increase over control, colon (nitrite (nitric oxide); colonic muscularis 24 h organ culture, SM vehicle 10.9-fold) | nitrite release, fold increase over control, jejunum (nitrite (nitric oxide); jejunal muscularis 24 h organ culture, SM vehicle 11.4-fold) | prostanoid release, fold of control, colon (prostanoids [4]; colonic muscularis 24 h organ culture, SM 3.1-fold) | prostanoid release, fold of control, jejunum (prostanoids [4]; jejunal muscularis 24 h organ culture, SM 5.9-fold) | geometric center (GC) of gastrointestinal transit [5] | jejunal circular muscle contractions to bethanechol, % of control (jejunal circular muscle) | muscularis neutrophil recruitment [6] | induction of IL-6, IL-1β and MCP 1 mRNAs after SM [7] | mediator release (GM-CSF, VEGF, IL-1α, IL-6, MCP-1 and MIP-1α) [8] | NO release (NO) | prostanoids (PG) release (prostanoids [9]) |
| --- | --- | --- | --- | --- | --- | --- | --- | --- | --- | --- | --- | --- | --- | --- | --- |
| CC(C)[C@H](N)C(=O)O [valine, reference compound] | 6.2±0.5 | 2.1±0.2 g/mm2/s | no effect | 93±2.7 cells/field at 200× | 9.5 fold | 12.0 fold | 1.5 fold | 3.4 fold | – | – | – | – | – | – | – |
| B1 | – | – | – | – | – | – | – | – | 10.8±0.4 | 93.6±21.1% | significantly less | less induction | significantly diminished | 49.1 µM/g | 3946.7 pg/mL/mg |

Reference: US20090238792A1, “SUPPRESSION OF POSTOPERATIVE ILEUS” (University of Pittsburgh of the Commonwealth System of …, priority 2007, published 2009)
